{"source": "patent US20030031651A1", "about": "“Methods and reagents for cell transplantation” (priority 2001, published 2003)", "origin": "cited, not measured here", "system": "BMSCs", "settings": "BMSCs exposed to 5-azacytidine", "data": [{"smiles": "Nc1ncn([C@@H]2O[C@H](CO)[C@@H](O)[C@H]2O)c(=O)n1", "note": "[5-azacytidine]", "values": [{"measurement": "c-abl and interleukin-6 transcripts", "result": "rapidly upregulate"}, {"measurement": "expression of collagen I", "result": "downregulating"}]}]}
